This assay addresses T1, recombinant full-length USP7 (Homo sapiens, UniProt Q93009).
T1 construct: A 25 μl reaction volume containing recombinant full-length USP7 (62 pM)
Briefly: USP7-mediated ubiquitin-rhodamine cleavage assay. The assay is classed as biochemical. The conditions noted are these: recombinant full-length USP7 62 pM, ubiquitin-rhodamine 100 nM, 1 hour reaction at room temperature. The method in brief: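 Enzyme 62 pM; HEPES pH 7.3/150 mM NaCl/1 mM TCEP/125 μg/ml BSA; 1% DMSO; 30 min cpd preinc RT; Ub-rhodamine 100 nM, 1 h RT, dark; acetic acid stop; fluorescence; IC50 4-param fit.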

[1] abbreviates: 30-minute incubation with compound, read-out: Potency: USP7 IC50.
The mark [2] stands for this setting: 30-minute pre-incubation, read-out: Potency (USP7 IC50).

The structures appear in SMILES notation. Structures can show the parent of a compound that is named as a salt. Where two headings read alike, the source gives them in different places. A value given as a limit tells only on which side of the number the result lay.

T1 sequence (Q93009 whole entry): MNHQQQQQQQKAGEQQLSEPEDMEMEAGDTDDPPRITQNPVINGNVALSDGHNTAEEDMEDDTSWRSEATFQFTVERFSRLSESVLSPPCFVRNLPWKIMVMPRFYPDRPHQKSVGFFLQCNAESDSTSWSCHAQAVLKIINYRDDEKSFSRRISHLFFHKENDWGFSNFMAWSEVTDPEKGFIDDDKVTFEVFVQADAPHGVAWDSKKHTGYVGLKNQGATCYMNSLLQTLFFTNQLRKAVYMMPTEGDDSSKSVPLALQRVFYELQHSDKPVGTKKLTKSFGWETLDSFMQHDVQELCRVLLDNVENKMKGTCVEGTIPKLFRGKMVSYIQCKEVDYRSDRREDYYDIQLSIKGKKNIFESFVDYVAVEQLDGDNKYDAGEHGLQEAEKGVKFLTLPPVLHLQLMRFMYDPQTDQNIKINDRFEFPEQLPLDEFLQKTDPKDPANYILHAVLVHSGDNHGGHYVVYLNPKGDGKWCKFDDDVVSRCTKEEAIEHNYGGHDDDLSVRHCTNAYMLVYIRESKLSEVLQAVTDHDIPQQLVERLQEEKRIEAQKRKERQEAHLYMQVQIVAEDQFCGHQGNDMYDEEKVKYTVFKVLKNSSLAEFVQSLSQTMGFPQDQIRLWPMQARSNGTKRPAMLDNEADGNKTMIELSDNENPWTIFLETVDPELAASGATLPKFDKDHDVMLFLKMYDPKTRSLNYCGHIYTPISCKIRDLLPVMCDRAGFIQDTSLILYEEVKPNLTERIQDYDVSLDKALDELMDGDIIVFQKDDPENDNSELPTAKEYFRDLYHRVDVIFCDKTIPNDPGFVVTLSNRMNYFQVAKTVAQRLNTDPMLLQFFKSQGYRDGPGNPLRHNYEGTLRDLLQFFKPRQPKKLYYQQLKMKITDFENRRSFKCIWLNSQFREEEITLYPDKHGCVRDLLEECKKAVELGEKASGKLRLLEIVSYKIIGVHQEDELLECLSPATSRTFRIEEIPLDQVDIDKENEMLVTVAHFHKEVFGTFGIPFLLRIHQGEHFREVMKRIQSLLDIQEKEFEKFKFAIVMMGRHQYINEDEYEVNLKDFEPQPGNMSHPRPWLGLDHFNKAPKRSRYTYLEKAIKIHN

Turning to `Cc1cc(Cl)cc(-c2ccnc3cc(CO)sc23)c1OCC1CCNC1` (stereo not shown) [Example 70, (7-(5-Chloro-3-methyl-2-(pyrrolidin-3-ylmethoxy)phenyl)thieno[3,2-b]pyridin-2-yl)methanol], the concentration for half-maximal inhibition (IC50) under setting [1] lay within 10 to 30 µM. As to `Cc1cc(Cl)cc(-c2ccnc3cc(Cn4c(=O)ccn(C)c4=O)sc23)c1O[C@@H]1CNC[C@H](F)C1` [Example 497, 3-[[7-[5-chloro-2-[[(3S,5R)-5-fluoro-3-piperidyl]oxy]-3-methyl-phenyl]thieno[3,2-b]pyridin-2-yl]methyl]-1-methyl-pyrimidine-2,4-dione], the IC50 under setting [2] is below 1 µM. On to `Cc1cc(Cl)cc(-c2ccnc3cc(CN4C(=O)CCC4=O)sc23)c1O[C@@H]1CNCC[C@@H]1C` [Example 243, 1-((7-(5-Chloro-3-methyl-2-(((3S,4S)-4-methylpiperidin-3-yl)oxy)phenyl)thieno[3,2-b]pyridin-2-yl)methyl)pyrrolidine-2,5-dione], for which the IC50 under setting [1] is below 1 µM. `CCC(O)c1cc2nccc(-c3cc(C#N)cc(C)c3OCC3(C#N)CNC3)c2s1` (stereo not shown) [Example 10, 3-((4-Cyano-2-(2-(1-hydroxypropyl)thieno[3,2-b]pyridin-7-yl)-6-methylphenoxy)methyl)azetidine-3-carbonitrile]: under setting [1], the IC50 was below 1 µM. Regarding `Cc1cc(Cl)cc(-c2ccnc3cc(Cn4c(=O)ccn(CC(F)(F)F)c4=O)sc23)c1O[C@@H]1CNC[C@@H]1C` [Example 566, 3-[[7-[5-chloro-3-methyl-2-[(3S,4S)-4-methylpyrrolidin-3-yl]oxy-phenyl]thieno[3,2-b]pyridin-2-yl]methyl]-1-(2,2,2-trifluoroethyl)pyrimidine-2,4-dione], the IC50 under setting [2] is below 1 µM. As to `Cc1cc(C#N)cc(-c2ccnc3cc(CO)sc23)c1OCC1(C#N)CNC1` [Example 11, 3-((4-Cyano-2-(2-(hydroxymethyl)thieno[3,2-b]pyridin-7-yl)-6-methylphenoxy)methyl)azetidine-3-carbonitrile], the IC50 under setting [1] was in the range of 1 to 10 µM. Turning to `Cc1cc(Cl)cc(-c2ccnc3cc(Cn4c(=O)ccn(C(C)C(F)(F)F)c4=O)sc23)c1O[C@H]1CCCNC1` (stereo partly drawn) [Example 575, 3-[[7-[5-chloro-3-methyl-2-[[(3S)-3-piperidyl]oxy]phenyl]thieno[3,2-b]pyridin-2-yl]methyl]-1-(2,2,2-trifluooro-1-methyl-ethyl)pyrimidine-2,4-dione], the IC50 under setting [2] was below 1 µM. For the compound `Cc1cc(Cl)cc(-c2ncnc3cc(CN4C(=O)C5C(C4=O)C5(C)C)sc23)c1OC1CNCC1(C)F` (stereo not shown) [Example 386, 3-[[4-[5-chloro-2-(4-fluoro-4-methyl-pyrrolidin-3-yl)oxy-3-methyl-phenyl]thieno[3,2-d]pyrimidin-6-yl]methyl]-6,6-dimethyl-3-azabicyclo[3.1.0]hexane-2,4-dione dihydrochloride], the IC50 under setting [1] is below 1 µM. With `Cc1cc(Cl)cc(-c2ccnc3cc(Cn4c(=O)ccn(C(C)C)c4=O)sc23)c1O[C@@H]1CNC[C@@H]1F` [Example 451, 3-[[7-[5-chloro-2-[(3R,4S)-4-fluoropyrrolidin-3-yl]oxy-3-methyl-phenyl]thieno[3,2-b]pyridin-2-yl]methyl]-1-isopropyl-pyrimidine-2,4-dione], the IC50 under setting [2] was below 1 µM. Take `Cc1cc(Cl)cc(-c2ccnc3cc(Cn4c(=O)ccn(CC(F)(F)F)c4=O)sc23)c1O[C@@H]1CCNC[C@@H]1C` [Example 173, 3-((7-(5-Chloro-3-methyl-2-(((3S,4R)-3-methylpiperidin-4-yl)oxy)phenyl)thieno[3,2-b]pyridin-2-yl)methyl)-1-(2,2,2-trifluoroethyl)pyrimidine-2,4(1H,3H)-dione]: under setting [1], the IC50 was below 1 µM. Regarding `Cc1cc(Cl)cc(-c2ncnc3cc(CN4C(=O)C5C(C4=O)C5(C)C)sc23)c1O[C@@H]1C[C@@H]2C[C@H]1N(C)C2` (stereo partly drawn) [Example 390, 3-[[4-[5-chloro-3-methyl-2-[[(1S,4R,5R)-3-methyl-3-azabicyclo[2.2.1]heptan-5-yl]oxy]phenyl]thieno[3,2-d]pyrimidin-6-yl]methyl]-6,6-dimethyl-3-azabicyclo[3.1.0]hexane-2,4-dione dihydrochloride], the IC50 under setting [1] is below 1 µM. Consider `Cc1cc(C#N)cc(-c2ccnc3cc(CN4C(=O)CCC4=O)sc23)c1OC1CCNCC1` [Example 212, 3-(2-((2,5-Dioxopyrrolidin-1-yl)methyl)thieno[3,2-b]pyridin-7-yl)-5-methyl-4-(piperidin-4-yloxy)benzonitrile], for which the IC50 under setting [1] was below 1 µM. In the case of `Cc1cc(Cl)cc(-c2ccnc3cc(CN4C(=O)CCC4C(F)(F)F)sc23)c1OC1CCNCC1` (stereo not shown) [Example 201, 1-((7-(5-Chloro-3-methyl-2-(piperidin-4-yloxy)phenyl)thieno[3,2-b]pyridin-2-yl)methyl)-5-(trifluoromethyl)pyrrolidin-2-one], under setting [1], the IC50 lay in the range of 1 to 10 µM. Regarding `Cc1cc(C#N)cc(-c2ccnc3cc(CO)sc23)c1OCC1(C)CNC1` [Example 43, 3-(2-(Hydroxymethyl)thieno[3,2-b]pyridin-7-yl)-5-methyl-4-((3-methylazetidin-3-yl)methoxy)benzonitrile], the IC50 under setting [1] fell in the range of 1 to 10 µM. With `Cc1cc(Cl)cc(-c2ccnc3cc(CN4C(=O)CCC4=O)sc23)c1OCC1(F)CNC1` [Example 15, 1-((7-(5-Chloro-2-((3-fluoroazetidin-3-yl)methoxy)-3-methylphenyl)thieno[3,2-b]pyridin-2-yl)methyl)pyrrolidine-2,5-dione], under setting [1], the IC50 is below 1 µM. `Cc1cc(Cl)cc(-c2ccnc3cc(Cn4c(=O)ccn(CC(F)(F)F)c4=O)sc23)c1OC1CC2CC1CN2` (stereo not shown) [Example 577, 3-[[7-[2-(2-azabicyclo[2.2.1]heptan-5-yloxy)-5-chloro-3-methyl-phenyl]thieno[3,2-b]pyridin-2-yl]methyl]-1-(2,2,2-trifluoroethyl)pyrimidine-2,4-dione; 2,2,2-trifluoroacetic acid]: the IC50 under setting [2] was below 1 µM. On the same count and under the same terms, then `Cc1cc(Cl)cc(-c2ccnc3cc(Cn4c(=O)ccn(C)c4=O)sc23)c1O[C@H]1CCNC[C@H]1C` [Example 453], with below 1 µM; and `Cc1cc(Cl)cc(-c2ccnc3cc(Cn4c(=O)ccn(CC(F)(F)F)c4=O)sc23)c1OC1CCNCC1(C)C` (stereo not shown) [Example 616, 3-[[7-[5-chloro-2-[(3,3-dimethyl-4-piperidyl)oxy]-3-methyl-phenyl]thieno[3,2-b]pyridin-2-yl]methyl]-1-(2,2,2-trifluoroethyl)pyrimidine-2,4-dione; 2,2,2-trifluoroacetic acid], with below 1 µM.

As for `Cc1cc(Cl)cc(-c2ncnc3cc(Cn4c(=O)ccn(C)c4=O)sc23)c1OC1CCNCC1` [Example 232, 3-((4-(5-Chloro-3-methyl-2-(piperidin-4-yloxy)phenyl)thieno[3,2-d]pyrimidin-6-yl)methyl)-1-methylpyrimidine-2,4(1H,3H)-dione], the IC50 under setting [1] is below 1 µM. On the same count and under the same terms, to `Cc1cc(Cl)cc(-c2ccnc3cc(CN4C(=O)CCC4=O)sc23)c1OC1CCNC1(C)C` (stereo not shown) [Example 343, 1-[[7-[5-chloro-2-(2,2-dimethylpyrrolidin-3-yl)oxy-3-methyl-phenyl]thieno[3,2-b]pyridin-2-yl]methyl]pyrrolidine-2,5-dione] belongs below 1 µM; to `Cc1cc(Cl)cc(-c2ncnc3cc(CN4C(=O)C5C(C4=O)C5(C)C)sc23)c1O[C@@H]1C[C@H]2CN[C@@H]1C2` (stereo partly drawn) [Example 354, 3-[[4-[2-[[(1S,4R,5R)-3-azabicyclo[2.2.1]heptan-5-yl]oxy]-5-chloro-3-methyl-phenyl]thieno[3,2-d]pyrimidin-6-yl]methyl]-6,6-dimethyl-3-azabicyclo[3.1.0]hexane-2,4-dione dihydrochloride], below 1 µM; to `CC(Oc1ccc(Cl)cc1-c1ccnc2cc(CO)sc12)C1CNC1` (stereo not shown) [Example 42, (7-(2-(1-(Azetidin-3-yl)ethoxy)-5-chlorophenyl)thieno[3,2-b]pyridin-2-yl)methanol], 10 to 30 µM. With `Cc1cc(Cl)cc(-c2ccnc3cc(Cn4c(=O)ccn(CC(F)(F)F)c4=O)sc23)c1OC1CCCCC1` [Example 665, 3-[[7-[5-chloro-2-(cyclohexoxy)-3-methyl-phenyl]thieno[3,2-b]pyridin-2-yl]methyl]-1-(2,2,2-trifluoroethyl)pyrimidine-2,4-dione], the IC50 under setting [2] is below 1 µM. Consider `Cc1cc(Cl)cc(-c2ccnc3cc(CN4C(=O)C5CC5C4=O)sc23)c1O[C@@H]1CCNC[C@@H]1C` (stereo partly drawn) [Example 324, 3-[[7-[5-chloro-3-methyl-2-[[(3S,4R)-3-methyl-4-piperidyl]oxy]phenyl]thieno[3,2-b]pyridin-2-yl]methyl]-3-azabicyclo[3.1.0]hexane-2,4-dione], for which the IC50 under setting [1] was below 1 µM.

In the case of `Cc1cc(Cl)cc(-c2ccnc3ccsc23)c1OC1CCCNCC1` (stereo not shown) [Example 266, 7-(2-(Azepan-4-yloxy)-5-chloro-3-methylphenyl)thieno[3,2-b]pyridine], the IC50 under setting [1] lay within 1 to 10 µM.

As for `Cc1cc(Cl)cc(-c2ccnc3cc(CN4C(=O)CCC4=O)sc23)c1O[C@H]1CCCNC1` [Example 211, (S)-1-((7-(5-Chloro-3-methyl-2-(piperidin-3-yloxy)phenyl)thieno[3,2-b]pyridin-2-yl)methyl)pyrrolidine-2,5-dione], the IC50 under setting [1] is below 1 µM.

Take `Cc1cc(Cl)cc(-c2ccnc3cc([C@@H](C)N4C(=O)C5C(C4=O)C5(C)C)sc23)c1OC1CCC(C)NC1` (stereo partly drawn) [Example 397, 3-[(1R)-1-[7-[5-chloro-3-methyl-2-[(6-methyl-3-piperidyl)oxy]phenyl]thieno[3,2-b]pyridin-2-yl]ethyl]-6,6-dimethyl-3-azabicyclo[3.1.0]hexane-2,4-dione; 2,2,2-trifluoroacetic acid]: under setting [1], the IC50 is below 1 µM. Consider `Cc1cc(Cl)cc(-c2ccnc3cc(CN4C(=O)CCC4=O)sc23)c1OC1CC[C@@H](C)NC1` (stereo partly drawn) [Example 463, 1-[[7-[5-chloro-3-methyl-2-[[(6R)-6-methyl-3-piperidyl]oxy]phenyl]thieno[3,2-b]pyridin-2-yl]methyl]pyrrolidine-2,5-dione; 2,2,2-trifluoroacetic acid], for which the IC50 under setting [2] is below 1 µM.

In general, IC50 refers to the point on the concentration scale where inhibition reaches its midpoint.

Values taken from patent US10722514B2 (FLX Bio, Inc., priority 2017, dated 2020).
